Test results published in EP0495432A1, “Hexa-cyclic compound” (DAIICHI PHARMACEUTICAL CO., LTD., priority 1991, dated 1992).

Each molecule was assayed on P388 murine leukemia cells (assay: Cytotoxicity against P388 murine leukemia cells (MTT assay)). Conditions: Mus musculus, P388, P388 cells 2.5x10³ per well, sample added after 24 hours, cultivated 3 days at 37°C, 5% CO₂, absorption at 540 nm, read-out: IC₅₀.
Format: cell-based
Experimental: P388 murine leukemia cells were spread over a 96-well microplate, 2.5x10³ cells per well. A sample to be tested was added after 24 hours. Cells were cultivated under the conditions of 5% CO₂ at 37°C for 3 days. 3-(4,5-Dimethylthiazol-2-yl)-2,5-diphenyl-2H-tetrazolium bromide (MTT) was added 4 hours after the addition of the sample. Upon the addition of 200 µl/ml of isopropyl alcohol containing 0.04 N HCl the absorption at 540 nm was measured to determine IC₅₀.
CC[C@@]1(O)C(=O)OCc2c1cc1n(c2=O)Cc2c-1nc1ccc(OC)c3c1c2CCC3N.Cl (single isomer, unassigned) [Example 7 (Isomer A)] gave an IC50 of 0.0114 µg/mL.

Same assay, conditions: P388 cells 2.5x10³ per well, sample added after 24 hours, cultivated 3 days at 37°C, 5% CO₂, absorption at 540 nm, hydrochloride
Molecule CC[C@@]1(O)C(=O)OCc2c1cc1n(c2=O)Cc2c-1nc1cccc3c1c2C(N)CC3.Cl (single isomer, unassigned) [Example 2 (Isomer A)] has an IC₅₀ of 3.38 ng/mL. CC[C@@]1(O)C(=O)OCc2c1cc1n(c2=O)Cc2c-1nc1cccc3c1c2C(N)CC3.Cl (single isomer, unassigned) [Example 2 (Isomer B)] showed an IC₅₀ of 12.40 ng/mL. CC[C@@]1(O)C(=O)OCc2c1cc1n(c2=O)Cc2c-1nc1ccc(OC)c3c1c2C(N)CC3.Cl (single isomer, unassigned) [Example 4 (Isomer A)] showed an IC₅₀ of 9.21 ng/mL. CC[C@@]1(O)C(=O)OCc2c1cc1n(c2=O)Cc2c-1nc1ccc(OC)c3c1c2C(N)CC3.Cl (single isomer, unassigned) [Example 4 (Isomer B)] was tested, and the IC₅₀ was 27.80 ng/mL. For CC[C@@]1(O)C(=O)OCc2c1cc1n(c2=O)Cc2c-1nc1ccc(OC)c3c1c2CCC3N.Cl (single isomer, unassigned) [Example 7 (Isomer B)], the IC₅₀ was 11.90 ng/mL.
